Where “and” joins values, the source holds several entries; their conditions need not be identical. Identical values can stand only once. Bridge positions count the residues as written; N and C are the ends. Square brackets hold non-standard residues; d marks the D form. Ends that are not written are not given here. Peptide text beside a SMILES is read from it. I, II: the chains in the order shown. Ava = NCCCCC(=O)O; βAla = NCCC(=O)O
Legend:
Assay type in all cases: cell-based
HIV-1 NL 4-3 [1] = test: HIV-1 infection of C8166 cells (syncytia formation, p24 ELISA) with HIV-1 NL 4-3; conditions: for IC50: C8166 cells, HIV-1 subtype B NL 4-3, Table 3
Method: (§1) HIV-1 NL 4-3 isolate (Adachi et al., 1986; Barré-Sinoussi et al., 1983) and highly cytopathic Zairian HIV-1 NDK isolate (Ellrodt et al., 1984) was propagated in permissive CEM cells (Nara et al., 1987). Uninfected CEM and C8166 (Salahuddin et al., 1983) were maintained in RPMI 1640 (R10) with ultraglutamine (cambrex, Vervier, Belgium), penicillin (100 U/ml), streptomycin (100 μg/ml), and 10% heat-inactivated fetal calf serum (Cambrex).
(§2) Samples of 3×10^5/100 μL C8166 cells were preincubated in 96-well microtiter plates in culture medium containing various concentrations of peptide. After a 1 h treatment at 37° C., 100 μl of diluted viral solution of HIV-1 was added. The cells were exposed to the virus for 1 h at 37° C. at a multiplicity of infection of 1000 TCID50 per ml. The cells were washed three times and cultured at 3×10^5/ml of R10 with the treatment in 24-well plates incubated at 37° C. C8166 culture medium was replaced at Day-4 post-infection. The treatment was permanent before virus adsorption, during virus adsorption and after infection. Assays on C8166 cells have been performed at least twice and in duplicate. Toxicity was evaluated by daily cell count and trypan-blue exclusion assay. Infection of C8166 T-cells with HIV-1 was assessed by virus-induced cytopathic effects (syncytia formation) and by quantification of cell free p24 viral protein in the culture supernatants. Measurements of HIV-1 p24^gag concentration in the culture supernatants were achieved by ELISA (ALLIANCE® HIV-1 p24 kit, Perkin Elmer, life sciences, USA).

HIV-1 NL 4-3 [2] = test: as above; parameters: key: ++, +, (+), (+)− and − represent decreasing numbers of syncitia formed; ++, +, (+), (+)− and − represent decreasing numbers of syncitia formed; ++, +, (+), (+)− and − represent decreasing numbers of syncitia formed; ++, +, (+), (+)− and − represent decreasing numbers of syncitia formed; ++, +, (+), (+)− and − represent decreasing numbers of syncitia formed; conditions: Table 1
Method: as §1, §2

HIV-1 NL 4-3 [3] = test: as above; parameters: key: ++, +, (+), (+)− and − represent decreasing numbers of syncitia formed.; ++, +, (+), (+)− and − represent decreasing numbers of syncitia formed.; ++, +, (+), (+)− and − represent decreasing numbers of syncitia formed.; ++, +, (+), (+)− and − represent decreasing numbers of syncitia formed.; ++, +, (+), (+)− and − represent decreasing numbers of syncitia formed; conditions: Table 2
Method: as §1, §2

HIV-1 NL 4-3 [4] = test: Infection of human peripheral blood lymphocytes (PBL) with NL 4-3 strain, p24 ELISA
Method: Peripheral blood lymphocytes from an HIV-1 negative donor were grown as described earlier, maintained in RPMI 1640 with ultraglutamine, supplemented with IL2 (20 μg/ml), penicillin (100 U/ml), streptomycin (100 μg/ml), and 10% heat-inactivated fetal calf serum. Cells were stimulated three days in the medium supplemented with phytohemagglutinin (20 U/ml PHA P, DIFCO, Detroit Mich.).
Samples of 10^6/100 μL PBL cells were preincubated in 96-well microtiter plates in culture medium containing various concentrations of peptides. After a 1 h treatment at 37° C., 100 μl of diluted viral solution of HIV-1 was added. The cells were exposed to the virus for 1 h at 37° C. at a multiplicity of infection of 1000 TCID50 per ml. The cells were washed three times and cultured at […] of medium with the treatment in 24-well plates incubated at 37° in culture medium with the peptides in 5% CO2. The treatment was permanent before virus adsorption, during virus adsorption and after infection. The PBL culture medium was replaced every 3-4 days during three weeks always in the presence of peptide. The cell viability was assessed by cell counts and trypan-blue exclusion assay. The viral production in the culture supernatant was quantified by p24 ELISA test, as described earlier. All the experiments have been done in blind-tests. Tests have been done in duplicate.

Cc1cn([C@H]2C[C@H](N=[N+]=[N-])[C@@H](CO)O2)c(=O)[nH]c1=O [AZT, reference compound]
P 24 (HIV-1 NL 4-3 [1]; Day 4, 1 μM, Table 1): NEG
P 24 (HIV-1 NL 4-3 [1]; Day 4, 1 μM, Table 2): NEG
P 24 (HIV-1 NL 4-3 [1]; Day 7, 1 μM, Table 1): NEG
Day 4 syncitia formed (HIV-1 NL 4-3 [2]; 1 μM): −
Day 5 syncitia formed (HIV-1 NL 4-3 [2]; 1 μM): −
Day 6 syncitia formed (HIV-1 NL 4-3 [2]; 1 μM): −
Day 7 syncitia formed (HIV-1 NL 4-3 [2]; 1 μM): −
Day 4 syncitia formed (HIV-1 NL 4-3 [3]; 1 μM): −
Day 5 syncitia formed (HIV-1 NL 4-3 [3]; 1 μM): −
Day 6 syncitia formed (HIV-1 NL 4-3 [3]; 1 μM): −
Day 7 syncitia formed (HIV-1 NL 4-3 [3]; 1 μM): −

CC(C)C[C@H](NC(=O)[C@@H]1CCCN1C(=O)[C@H](CO)NC(=O)[C@H](Cc1ccc(O)cc1)NC(=O)CNC(=O)[C@H](CCC(N)=O)NC(=O)[C@@H](N)CCCNC(=N)N)C(=O)NCCCC[C@H](NC(=O)[C@H](CC(C)C)NC(=O)[C@@H]1CCCN1C(=O)[C@H](CO)NC(=O)[C@H](Cc1ccc(O)cc1)NC(=O)CNC(=O)[C@H](CCC(N)=O)NC(=O)[C@@H](N)CCCNC(=N)N)C(=O)NCCC(=O)O [RL dimer, (RQGYSPL)2-K-βA, reference compound] (I: H-RQGYSPLK[βAla]-OH / II: H-RQGYSPL; amide I:8-II:C; N-terminus assumed)
IC50 (HIV-1 NL 4-3 [1]): 0.02 µM
IC50 (HIV-1 NL 4-3 [4]; PBL, NL 4-3 strain, Table 4): 0.01 µM
IC100 (HIV-1 NL 4-3 [4]; PBL, NL 4-3 strain, Table 4): 0.1 µM

N=C(N)NCCC[C@H](N)C(=O)N[C@@H](CCC(N)=O)C(=O)NCC(=O)N[C@@H](Cc1ccc(O)cc1)C(=O)N[C@@H](CO)C(=O)NCCCC[C@H](NC(=O)[C@H](CO)NC(=O)[C@H](Cc1ccc(O)cc1)NC(=O)CNC(=O)[C@H](CCC(N)=O)NC(=O)[C@@H](N)CCCNC(=N)N)C(=O)NCCCCC(=O)O [RS dimer valeric acid, (RQGYS)2-K—NHCH2CH2CH2CH2COOH] (I: H-RQGYSK[Ava]-OH / II: H-RQGYS; amide I:6-II:C)
IC50 (HIV-1 NL 4-3 [1]): 0.05 µM

N=C(N)NCCC[C@H](N)C(=O)N[C@@H](CCC(N)=O)C(=O)NCC(=O)N[C@@H](Cc1ccc(O)cc1)C(=O)N[C@@H](CO)C(=O)NCCCCC(=O)O [RS monomer valeric acid, RQGYS-NHCH2CH2CH2CH2COOH] (H-RQGYS[Ava]-OH)
IC50 (HIV-1 NL 4-3 [1]): 0.2 µM

N=C(N)NCCC[C@H](N)C(=O)N[C@@H](CCC(N)=O)C(=O)NCC(=O)N[C@@H](Cc1ccc(O)cc1)C(=O)N[C@@H](CO)C(=O)NCCCC[C@H](NC(=O)[C@H](CO)NC(=O)[C@H](Cc1ccc(O)cc1)NC(=O)CNC(=O)[C@H](CCC(N)=O)NC(=O)[C@@H](N)CCCNC(=N)N)C(=O)NCCC(=O)O [RS, (RQGYS)2-K-βA-OH, reference compound] (I: H-RQGYSK[βAla]-OH / II: H-RQGYS; amide I:6-II:C; N-terminus assumed)
IC50 (HIV-1 NL 4-3 [1]): 0.1 µM

GPGRAF [SPC3 monomer, GPGRAF, reference compound]
IC50 (HIV-1 NL 4-3 [1]): > 10 µM

RQGYSPL [RL monomer, RQGYSPL, reference compound]
IC50 (HIV-1 NL 4-3 [1]): 0.5 µM

SPC3-(ε-aminocaproic acid) [S4]
P 24 (HIV-1 NL 4-3 [1]; Day 4, 0.5 μM, Table 1): 43 pg/mL and 28 pg/mL
P 24 (HIV-1 NL 4-3 [1]; Day 4, 2 μM, Table 1): 17 pg/mL and 14 pg/mL
P 24 (HIV-1 NL 4-3 [1]; Day 7, 0.5 μM, Table 1): 19801 pg/mL and 25000 pg/mL
P 24 (HIV-1 NL 4-3 [1]; Day 7, 1 μM, Table 1): 19801 pg/mL and 21640 pg/mL
P 24 (HIV-1 NL 4-3 [1]; Day 7, 2 μM, Table 1): 17872 pg/mL and 24806 pg/mL
P 24 (HIV-1 NL 4-3 [1]; Day 7, 5 μM, Table 1): 21120 pg/mL and 15674 pg/mL
IC100 (HIV-1 NL 4-3 [4]; on PBL): 0.5 µM
Day 4 syncitia formed (HIV-1 NL 4-3 [2]; 0.5 μM): −
Day 5 syncitia formed (HIV-1 NL 4-3 [2]; 0.5 μM): +
Day 6 syncitia formed (HIV-1 NL 4-3 [2]; 0.5 μM): +
Day 7 syncitia formed (HIV-1 NL 4-3 [2]; 0.5 μM): ++
Day 4 syncitia formed (HIV-1 NL 4-3 [2]; 1 μM): −
Day 5 syncitia formed (HIV-1 NL 4-3 [2]; 1 μM): +
Day 6 syncitia formed (HIV-1 NL 4-3 [2]; 1 μM): +
Day 7 syncitia formed (HIV-1 NL 4-3 [2]; 1 μM): ++
Day 4 syncitia formed (HIV-1 NL 4-3 [2]; 2 μM): −
Day 5 syncitia formed (HIV-1 NL 4-3 [2]; 2 μM): +
Day 6 syncitia formed (HIV-1 NL 4-3 [2]; 2 μM): +
Day 7 syncitia formed (HIV-1 NL 4-3 [2]; 2 μM): ++
Day 4 syncitia formed (HIV-1 NL 4-3 [2]; 5 μM): −
Day 5 syncitia formed (HIV-1 NL 4-3 [2]; 5 μM): +
Day 6 syncitia formed (HIV-1 NL 4-3 [2]; 5 μM): +
Day 7 syncitia formed (HIV-1 NL 4-3 [2]; 5 μM): ++

SPC3-Kpam [S7]
P 24 (HIV-1 NL 4-3 [1]; Day 4, 5 μM, Table 2): NEG
Day 4 syncitia formed (HIV-1 NL 4-3 [3]; 1 μM): (+)
Day 5 syncitia formed (HIV-1 NL 4-3 [3]; 1 μM): +
Day 6 syncitia formed (HIV-1 NL 4-3 [3]; 1 μM): ++
Day 7 syncitia formed (HIV-1 NL 4-3 [3]; 1 μM): ++
Day 4 syncitia formed (HIV-1 NL 4-3 [3]; 5 μM): −
Day 5 syncitia formed (HIV-1 NL 4-3 [3]; 5 μM): −
Day 6 syncitia formed (HIV-1 NL 4-3 [3]; 5 μM): − and +
Day 7 syncitia formed (HIV-1 NL 4-3 [3]; 5 μM): + and ++

Reference: US20060229433A1, “Modified antiviral peptides with increased activity and cell membrane affinity” (priority 2003, published 2006)
